target: human GluN1/GluN2B NMDA receptors (Homo sapiens, UniProt Q05586+Q13224); experiment: Cell-based calcium flux (FLIPR) assay on cloned human NR1/NR2B ion channels expressed in mammalian cells; conditions: standard assay; human GluN1/GluN2B, calcium flux (FLIPR), glutamate ~EC80
In short: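 Calcium influx followed by FLIPR fluorescence after 5 min compound exposure and a further 5 min co-agonist challenge: 10 μM glycine with glutamate at ~EC80 (standard) or EC40 (HTS).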

human GluN1/GluN2B NMDA receptors, sequence (Q13224 27-1484, other chains not shown): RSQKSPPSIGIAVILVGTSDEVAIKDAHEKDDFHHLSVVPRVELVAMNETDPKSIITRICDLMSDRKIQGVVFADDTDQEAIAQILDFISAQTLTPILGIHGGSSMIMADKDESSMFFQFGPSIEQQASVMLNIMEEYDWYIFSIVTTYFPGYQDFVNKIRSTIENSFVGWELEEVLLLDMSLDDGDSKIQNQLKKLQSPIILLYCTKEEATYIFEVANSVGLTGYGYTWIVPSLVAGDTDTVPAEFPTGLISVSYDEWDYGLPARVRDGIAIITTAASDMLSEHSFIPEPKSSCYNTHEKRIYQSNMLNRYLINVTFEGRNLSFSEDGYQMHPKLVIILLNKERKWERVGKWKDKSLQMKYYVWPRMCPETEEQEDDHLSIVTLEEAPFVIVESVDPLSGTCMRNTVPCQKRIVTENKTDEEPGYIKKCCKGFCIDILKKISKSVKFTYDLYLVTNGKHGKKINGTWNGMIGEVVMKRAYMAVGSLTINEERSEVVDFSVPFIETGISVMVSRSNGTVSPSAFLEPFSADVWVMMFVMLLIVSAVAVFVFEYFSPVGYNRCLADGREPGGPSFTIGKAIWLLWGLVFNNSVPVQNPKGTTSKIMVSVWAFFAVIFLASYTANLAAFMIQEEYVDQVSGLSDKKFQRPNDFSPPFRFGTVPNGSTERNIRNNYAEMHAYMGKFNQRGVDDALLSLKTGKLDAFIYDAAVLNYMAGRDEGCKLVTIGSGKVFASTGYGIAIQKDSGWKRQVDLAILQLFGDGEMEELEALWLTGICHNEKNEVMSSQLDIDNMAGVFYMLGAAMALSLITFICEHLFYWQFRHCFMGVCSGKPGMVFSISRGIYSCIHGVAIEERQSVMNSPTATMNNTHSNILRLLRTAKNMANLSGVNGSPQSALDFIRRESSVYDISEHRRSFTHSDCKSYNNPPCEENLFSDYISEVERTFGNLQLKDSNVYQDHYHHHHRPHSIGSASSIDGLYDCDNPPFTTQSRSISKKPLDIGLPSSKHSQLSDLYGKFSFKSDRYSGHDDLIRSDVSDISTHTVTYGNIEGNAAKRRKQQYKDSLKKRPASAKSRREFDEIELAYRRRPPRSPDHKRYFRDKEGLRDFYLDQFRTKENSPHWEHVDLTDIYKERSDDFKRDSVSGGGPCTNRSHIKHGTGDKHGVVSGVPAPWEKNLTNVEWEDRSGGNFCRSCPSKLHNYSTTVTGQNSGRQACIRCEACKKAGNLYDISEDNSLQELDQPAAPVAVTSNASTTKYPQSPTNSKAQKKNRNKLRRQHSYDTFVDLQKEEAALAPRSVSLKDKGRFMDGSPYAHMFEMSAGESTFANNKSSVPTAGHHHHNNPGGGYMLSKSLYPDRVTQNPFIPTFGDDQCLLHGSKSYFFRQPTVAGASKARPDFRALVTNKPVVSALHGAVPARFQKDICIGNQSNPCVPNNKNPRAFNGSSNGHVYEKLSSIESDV

| SMILES | IC50 [µM] |
| --- | --- |
| FC(F)Oc1cnc(OCc2cn(-c3ccc(Cl)cc3)nn2)nc1 [Example 227, 2-[[1-(4-Chlorophenyl)triazol-4-yl]methoxy]-5-(difluoromethoxy)pyrimidine] | 0.151 |
| Fc1cccc(-n2cc(COc3ncccn3)nn2)c1 [Example 228, 2-[[1-(3-Fluorophenyl)triazol-4-yl]methoxy]pyrimidine] | 5.65 |
| Fc1cnc(OCc2cn(-c3cccc(F)c3)nn2)nc1 [Example 229, 5-Fluoro-2-[[1-(3-fluorophenyl)triazol-4-yl]methoxy]pyrimidine] | 2.98 |
| COc1cnc(OCc2cn(-c3cccc(F)c3)nn2)nc1 [Example 230, 2-[[1-(3-Fluorophenyl)triazol-4-yl]methoxy]-5-methoxy-pyrimidine] | 0.275 |
| Fc1cccc(-n2cc(COc3ncc(Cl)cn3)nn2)c1 [Example 231, 5-Chloro-2-[[1-(3-fluorophenyl)triazol-4-yl]methoxy]pyrimidine] | 0.389 |
| Cc1cnc(OCc2cn(-c3cccc(F)c3)nn2)nc1 [Example 232, 2-[[1-(3-Fluorophenyl)triazol-4-yl]methoxy]-5-methyl-pyrimidine] | 0.205 |
| CCc1cnc(OCc2cn(-c3cccc(F)c3)nn2)nc1 [Example 233, 5-Ethyl-2-[[1-(3-fluorophenyl)triazol-4-yl]methoxy]pyrimidine] | 0.075 |
| Cc1cnc(OCc2cn(-c3cccc(Br)c3)nn2)nc1 [Example 234, 2-[[1-(3-Bromophenyl)triazol-4-yl]methoxy]-5-methyl-pyrimidine] | 0.022 |
| Cc1ccccc1-n1cc(COc2ncccn2)nn1 [Example 236, 2-[[1-(o-Tolyl)triazol-4-yl]methoxy]pyrimidine] | > 10 |
| Cc1ccccc1-n1cc(COc2ncc(F)cn2)nn1 [Example 237, 5-Fluoro-2-[[1-(o-tolyl)triazol-4-yl]methoxy]pyrimidine] | 16.6 |
| COc1cnc(OCc2cn(-c3ccccc3C)nn2)nc1 [Example 238, 5-Methoxy-2-[[1-(o-tolyl)triazol-4-yl]methoxy]pyrimidine] | 5.99 |
| Cc1ccccc1-n1cc(COc2ncc(Cl)cn2)nn1 [Example 239, 5-Chloro-2-[[1-(o-tolyl)triazol-4-yl]methoxy]pyrimidine] | 4.8 |
| Cc1cnc(OCc2cn(-c3ccccc3C)nn2)nc1 [Example 240, 5-Methyl-2-[[1-(o-tolyl)triazol-4-yl]methoxy]pyrimidine] | 5.58 |
| CCc1cnc(OCc2cn(-c3ccccc3C)nn2)nc1 [Example 241, 5-Ethyl-2-[[1-(o-tolyl)triazol-4-yl]methoxy]pyrimidine] | 1.46 |
| Cc1cccc(-n2cc(COc3ncccn3)nn2)c1 [Example 242, 2-[[1-(m-Tolyl)triazol-4-yl]methoxy]pyrimidine] | 0.647 |
| Cc1cnc(OCc2cn(-c3cccc(C)c3)nn2)nc1 [Example 243, 5-Methyl-2-[[1-(m-tolyl)triazol-4-yl]methoxy]pyrimidine] | 0.014 |
| Cc1cccc(-n2cc(COc3nccc(C)n3)nn2)c1 [Example 244, 4-Methyl-2-[[1-(m-tolyl)triazol-4-yl]methoxy]pyrimidine] | 0.191 |
| CCc1cnc(OCc2cn(-c3cccc(C)c3)nn2)nc1 [Example 245, 5-Ethyl-2-[[1-(m-tolyl)triazol-4-yl]methoxy]pyrimidine] | 0.01 |
| Cc1cccc(-n2cc(COc3ncc(Cl)cn3)nn2)c1 [Example 246, 5-Chloro-2-[[1-(m-tolyl)triazol-4-yl]methoxy]pyrimidine] | 0.033 |
| Cc1cccc(-n2cc(COc3ncc(F)cn3)nn2)c1 [Example 247, 5-Fluoro-2-[[1-(m-tolyl)triazol-4-yl]methoxy]pyrimidine] | 0.34 |

| SMILES | IC50 [µM] |
| --- | --- |
| COc1cnc(OCc2cn(-c3cccc(C)c3)nn2)nc1 [Example 248, 5-Methoxy-2-[[1-(m-tolyl)triazol-4-yl]methoxy]pyrimidine] | 0.009 |
| Cc1cccc(-n2cc(COc3ncc(C(C)(C)O)cn3)nn2)c1 [Example 249, 2-[2-[[1-(m-Tolyl)triazol-4-yl]methoxy]pyrimidin-5-yl]propan-2-ol] | 0.289 |
| COCc1ccnc(OCc2cn(-c3cccc(C)c3)nn2)n1 [Example 250, 4-(Methoxymethyl)-2-[[1-(m-tolyl)triazol-4-yl]methoxy]pyrimidine] | 0.249 |
| Cc1cccc(-n2cc(COc3ncc(C)c(C)n3)nn2)c1 [Example 251, 4,5-Dimethyl-2-[[1-(m-tolyl)triazol-4-yl]methoxy]pyrimidine] | 0.002 |
| Cc1cccc(-n2cc(COc3ncc(F)c(C)n3)nn2)c1 [Example 252, 5-Fluoro-4-methyl-2-[[1-(m-tolyl)triazol-4-yl]methoxy]pyrimidine] | 0.065 |
| Cc1cccc(-n2cc(COc3ncc(Cl)c(C)n3)nn2)c1 [Example 253, 5-Chloro-4-methyl-2-[[1-(m-tolyl)triazol-4-yl]methoxy]pyrimidine] | 0.007 |
| Cc1cccc(-n2cc(COc3ncc(C)c(N)n3)nn2)c1 [Example 254, 5-Methyl-2-[[1-(m-tolyl)triazol-4-yl]methoxy]pyrimidin-4-amine] | 0.151 |
| CC(=O)c1cnc(OCc2cn(-c3cccc(C)c3)nn2)nc1 [Example 255, 1-[2-[[1-(m-Tolyl)triazol-4-yl]methoxy]pyrimidin-5-yl]ethanone] | 0.224 |
| Cc1ccc(-n2cc(COc3ncccn3)nn2)cc1 [Example 256, 2-[[1-(p-Tolyl)triazol-4-yl]methoxy]pyrimidine] | 4.42 |
| Cc1ccc(-n2cc(COc3ncc(F)cn3)nn2)cc1 [Example 257, 5-Fluoro-2-[[1-(p-tolyl)triazol-4-yl]methoxy]pyrimidine] | 2.69 |
| COc1cnc(OCc2cn(-c3ccc(C)cc3)nn2)nc1 [Example 258, 5-Methoxy-2-[[1-(p-tolyl)triazol-4-yl]methoxy]pyrimidine] | 0.225 |
| Cc1ccc(-n2cc(COc3ncc(Cl)cn3)nn2)cc1 [Example 259, 5-Chloro-2-[[1-(p-tolyl)triazol-4-yl]methoxy]pyrimidine] | 0.711 |
| Cc1ccc(-n2cc(COc3ncc(C)cn3)nn2)cc1 [Example 260, 5-Methyl-2-[[1-(p-tolyl)triazol-4-yl]methoxy]pyrimidine] | 0.271 |
| CCc1cnc(OCc2cn(-c3ccc(C)cc3)nn2)nc1 [Example 261, 5-Ethyl-2-[[1-(p-tolyl)triazol-4-yl]methoxy]pyrimidine] | 0.093 |
| CC(C)c1cccc(-n2cc(COc3ncccn3)nn2)c1 [Example 262, 2-[[1-(3-Isopropylphenyl)triazol-4-yl]methoxy]pyrimidine] | 0.358 |
| CC(C)c1cccc(-n2cc(COc3ncc(F)cn3)nn2)c1 [Example 263, 5-Fluoro-2-[[1-(3-isopropylphenyl)triazol-4-yl]methoxy]pyrimidine] | 0.227 |
| COc1cnc(OCc2cn(-c3cccc(C(C)C)c3)nn2)nc1 [Example 264, 2-[[1-(3-Isopropylphenyl)triazol-4-yl]methoxy]-5-methoxy-pyrimidine] | 0.006 |
| CC(C)c1cccc(-n2cc(COc3ncc(Cl)cn3)nn2)c1 [Example 265, 5-Chloro-2-[[1-(3-isopropylphenyl)triazol-4-yl]methoxy]pyrimidine] | 0.016 |
| Cc1cnc(OCc2cn(-c3cccc(C(C)C)c3)nn2)nc1 [Example 266, 2-[[1-(3-Isopropylphenyl)triazol-4-yl]methoxy]-5-methyl-pyrimidine] | 0.01 |

Reference: US10233173B2, “Substituted 1,2,3-triazoles as NR2B-selective NMDA modulators” (JANSSEN PHARMACEUTICA NV, priority 2016, dated 2019)
